Source: ChEMBL document CHEMBL1201862, “PubChem BioAssay data set” (2004)
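48-hour exposure; five concentrations; linearly interpolated endpoints. Abbreviation: GI50, concentration required for 50% inhibition of growth.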 Calls of active or inactive are those of the source. Cut-off read from the data, not from the text of the source: active = GI50 up to about 1.1 µM and inactive = higher.

What was measured:
Test in all cases: growth of human tumour cells (NCI), 48 h
[1] = test system: OVCAR-8
[2] = test system: SK-MEL-5
[3] = test system: HCC 2998
[4] = test system: NCI-H23
[5] = test system: SN12C
[6] = test system: SR
[7] = test system: K562
[8] = test system: MCF7
[9] = test system: PC-3
[10] = test system: SNB-75
[11] = test system: NCI/ADR-RES
[12] = test system: Hs-578T
[13] = test system: M14
[14] = test system: HT-29
[15] = test system: SNB-19
[16] = test system: HL-60
[17] = test system: SK-MEL-28
[18] = test system: MOLT-4
[19] = test system: NCI-H522
[20] = test system: SK-OV-3

Row | SMILES | GI50 [1] | GI50 [2] | GI50 [3] | GI50 [4] | GI50 [5] | GI50 [6] | GI50 [7] | GI50 [8] | GI50 [9] | GI50 [10] | GI50 [11] | GI50 [12] | GI50 [13] | GI50 [14] | GI50 [15] | GI50 [16] | GI50 [17] | GI50 [18] | GI50 [19] | GI50 [20]
1 | CNC(=O)OCc1nc(SSC(C)(C)C)n(C)c1COC(=O)NC | 2.07 µM (inactive) | 5.98 µM (inactive) | 8.91 µM (inactive) | 2.71 µM (inactive) | 4.42 µM (inactive) | 1.05 µM (active) | 1.94 µM (inactive) | 4.3 µM (inactive) | 8.75 µM (inactive) | 8.57 µM (inactive) | 5.52 µM (inactive) | 2.22 µM (inactive) | 1.71 µM (inactive) | 5.56 µM (inactive) | 18 µM (inactive) | 0.863 µM (active) | 1.84 µM (inactive) | 1.28 µM (inactive) | 1.16 µM (inactive) | 17.1 µM (inactive)
2 | CCCCCC(CO)C(O)(C(F)(F)F)C(F)(F)F (stereo not given) | > 10 µM (inactive) | > 10 µM (inactive) | > 10 µM (inactive) | > 10 µM (inactive) | > 10 µM (inactive) | > 10 µM (inactive) | > 10 µM (inactive) | > 10 µM (inactive) | > 10 µM (inactive) | > 10 µM (inactive) | > 10 µM (inactive) | > 10 µM (inactive) | > 10 µM (inactive) | > 10 µM (inactive) | > 10 µM (inactive) | > 10 µM (inactive) | > 10 µM (inactive) | > 10 µM (inactive) | > 10 µM (inactive) | > 10 µM (inactive)
3 | CN(CCNCc1cn(C)c2c1ccc1ccccc12)CCNCc1cn(C)c2c1ccc1ccccc12 | 1.85 µM (inactive) | 1.87 µM (inactive) | 0.301 µM (active) | 1.64 µM (inactive) | 1.56 µM (inactive) | 1.04 µM (active) | 0.458 µM (active) | 0.333 µM (active) | 1.47 µM (inactive) | 1.21 µM (inactive) | 1.54 µM (inactive) | 1.64 µM (inactive) | 0.726 µM (active) | 1.61 µM (inactive) | 1.39 µM (inactive) | 1.06 µM (active) | 1.43 µM (inactive) | 1.09 µM (active) | 1.77 µM (inactive) | 1.76 µM (inactive)
4 | Cc1c(C)c(S(=O)(=O)N(CCCCCCN)OCCCN)c(C)c2c1OC(C)(C)CC2 | 8.17 µM (inactive) | 10.6 µM (inactive) | 2.04 µM (inactive) | 8.83 µM (inactive) | 13 µM (inactive) | 5.92 µM (inactive) | 4.53 µM (inactive) | 9.59 µM (inactive) | 3.7 µM (inactive) | 2.99 µM (inactive) | 15.5 µM (inactive) | 3.72 µM (inactive) | 17.8 µM (inactive) | 5.6 µM (inactive) | 3.96 µM (inactive) | 1.22 µM (inactive) | 17.6 µM (inactive) | 2.18 µM (inactive) | 4.7 µM (inactive) | 10.1 µM (inactive)
5 | O=Cc1cc(C(=O)OCc2ccccc2)n(S(=O)(=O)c2ccccc2)c1 | 31.9 µM (inactive) | 4.84 µM (inactive) | 17 µM (inactive) | 20.6 µM (inactive) | 26.3 µM (inactive) | 3.47 µM (inactive) | 4.51 µM (inactive) | 11.7 µM (inactive) | 16.6 µM (inactive) | 23.1 µM (inactive) | 31 µM (inactive) | 15.8 µM (inactive) | 14.8 µM (inactive) | 21.7 µM (inactive) | 29.2 µM (inactive) | 5.75 µM (inactive) | 12.8 µM (inactive) | 23 µM (inactive) | 40.4 µM (inactive) | 21.6 µM (inactive)
6 | O=C1C(Cl)C(c2cc3cc(Br)ccc3nc2Cl)N1c1ccc(Cl)cc1 (stereo not given) | 5.9 µM (inactive) | 3.21 µM (inactive) | 4.36 µM (inactive) | 5.7 µM (inactive) | 4.45 µM (inactive) | 1.64 µM (inactive) | 5.81 µM (inactive) | 3.74 µM (inactive) | 5.69 µM (inactive) | 7.83 µM (inactive) | 5.75 µM (inactive) | 9.2 µM (inactive) | 5.85 µM (inactive) | 7.16 µM (inactive) | 8.43 µM (inactive) | 6.95 µM (inactive) | 11.1 µM (inactive) | 3.89 µM (inactive) | 3.95 µM (inactive) | 10.3 µM (inactive)
7 | O=C1C(C(O)(C(F)(F)F)C(F)(F)F)CCC1C(O)(C(F)(F)F)C(F)(F)F (stereo not given) | 8.75 µM (inactive) | 1.72 µM (inactive) | 0.323 µM (active) | 0.769 µM (active) | 0.684 µM (active) | 0.215 µM (active) | 3.64 µM (inactive) | 0.174 µM (active) | 0.176 µM (active) | 0.234 µM (active) | 2.33 µM (inactive) | 1.37 µM (inactive) | 8.71 µM (inactive) | 0.301 µM (active) | 17.9 µM (inactive) | 1.16 µM (inactive) | 3.16 µM (inactive) | 0.341 µM (active) | 1.29 µM (inactive) | 23 µM (inactive)
8 | O=C(Nc1ccc(Cl)cc1)c1cc(S(=O)(=O)Nc2n[nH]c(Nc3ccc4ccccc4c3)n2)c(SSc2cc(Cl)c(C(=O)Nc3ccc(Cl)cc3)cc2S(=O)(=O)Nc2n[nH]c(Nc3ccc4ccccc4c3)n2)cc1Cl | 27 µM (inactive) | 21.3 µM (inactive) | 17.9 µM (inactive) | 24.5 µM (inactive) | 22.5 µM (inactive) | 23.7 µM (inactive) | 20.5 µM (inactive) | 25.8 µM (inactive) | 24.4 µM (inactive) | 23 µM (inactive) | 30.8 µM (inactive) | 31.8 µM (inactive) | 24.2 µM (inactive) | 20.6 µM (inactive) | 21.3 µM (inactive) | 25.1 µM (inactive) | 21.8 µM (inactive) | 19.1 µM (inactive) | 22.6 µM (inactive) | 33.5 µM (inactive)
9 | COc1ccc(-c2cc3c(c4cc(OC)ccc24)C(=O)OC3=O)cc1 | > 100 µM (inactive) | > 100 µM (inactive) | > 100 µM (inactive) | > 100 µM (inactive) | > 100 µM (inactive) | > 100 µM (inactive) | > 100 µM (inactive) | > 100 µM (inactive) | > 100 µM (inactive) | 68.1 µM (inactive) | > 100 µM (inactive) | > 100 µM (inactive) | > 100 µM (inactive) | > 100 µM (inactive) | > 100 µM (inactive) | > 100 µM (inactive) | > 100 µM (inactive) | > 100 µM (inactive) | > 100 µM (inactive) | > 100 µM (inactive)
10 | CN(C)CC1CN(C(=O)Nc2ccccc2)C(=N)O1 (stereo not given) | > 100 µM (inactive) | > 100 µM (inactive) | > 100 µM (inactive) | > 100 µM (inactive) | > 100 µM (inactive) | > 100 µM (inactive) | > 100 µM (inactive) | > 100 µM (inactive) | > 100 µM (inactive) | > 100 µM (inactive) | > 100 µM (inactive) | > 100 µM (inactive) | > 100 µM (inactive) | > 100 µM (inactive) | > 100 µM (inactive) | > 100 µM (inactive) | > 100 µM (inactive) | > 100 µM (inactive) | > 100 µM (inactive) | > 100 µM (inactive)
11 | COc1ccc(OC)c(NC(=O)C(=O)Nn2c(S)nc3ccccc3c2=O)c1 | > 100 µM (inactive) | > 100 µM (inactive) | > 100 µM (inactive) | > 100 µM (inactive) | > 100 µM (inactive) | > 100 µM (inactive) | > 100 µM (inactive) | > 100 µM (inactive) | > 100 µM (inactive) | > 100 µM (inactive) | > 100 µM (inactive) | > 100 µM (inactive) | > 100 µM (inactive) | > 100 µM (inactive) | > 100 µM (inactive) | > 100 µM (inactive) | > 100 µM (inactive) | > 100 µM (inactive) | > 100 µM (inactive) | > 100 µM (inactive)
12 | CC1(C)c2ccccc2C(=O)C12CCC(=O)CC2 | > 100 µM (inactive) | > 10 µM (inactive) | > 100 µM (inactive) | > 100 µM (inactive) | > 100 µM (inactive) | > 100 µM (inactive) | > 100 µM (inactive) | > 100 µM (inactive) | > 100 µM (inactive) | 0.504 µM (active) | > 100 µM (inactive) | 69.8 µM (inactive) | > 100 µM (inactive) | > 100 µM (inactive) | > 100 µM (inactive) | > 100 µM (inactive) | > 100 µM (inactive) | > 100 µM (inactive) | > 100 µM (inactive) | > 100 µM (inactive)
13 | O=C(NC(Cc1c[nH]c2ccccc12)C(=O)O)/C(=C/c1ccccc1)NC(=O)c1ccccc1 (stereo not given) | 57.5 µM (inactive) | 37 µM (inactive) | 78.3 µM (inactive) | > 83.2 µM (inactive) | > 100 µM (inactive) | > 100 µM (inactive) | 59.7 µM (inactive) | 50 µM (inactive) | 50.5 µM (inactive) | 32.7 µM (inactive) | 36.6 µM (inactive) | 28.5 µM (inactive) | 46 µM (inactive) | 66.7 µM (inactive) | > 92 µM (inactive) | 77.6 µM (inactive) | > 88.9 µM (inactive) | 51.1 µM (inactive) | 25.3 µM (inactive) | 54.2 µM (inactive)
14 | O=C(O)C1=C(C(=O)O)N(c2ccncc2)C(c2ccco2)=CC1c1ccccc1[N+](=O)[O-] (stereo not given) | 16.7 µM (inactive) | 5.82 µM (inactive) | 1.9 µM (inactive) | 12.4 µM (inactive) | 13.1 µM (inactive) | 2.03 µM (inactive) | 2.85 µM (inactive) | 2.65 µM (inactive) | 13.4 µM (inactive) | 7.4 µM (inactive) | 22.6 µM (inactive) | 16.7 µM (inactive) | 7.01 µM (inactive) | 2.18 µM (inactive) | 12.9 µM (inactive) | 2.88 µM (inactive) | 16.2 µM (inactive) | 3.44 µM (inactive) | 1.77 µM (inactive) | 18 µM (inactive)
